Assay results as given in PMC8778866, “Oral Bioavailability Enhancement of Melanin Concentrating Hormone, Development and In Vitro Pharmaceutical Assessment of Novel Delivery Systems” (Pharmaceutics, 2021).

Key:
pancreatin = test: Enzymatic stability in simulated intestinal fluid (SIF) with pancreatin; type: in vitro ADME, porcine; settings: 37 °C, 100 rpm, RIA, mean ± SD, n = 3
Description: (§1) Enzymatic degradation in the presence of proetolytic enzymes pepsin and pancreatin was investigated. Peptide-loaded particles were added to 100 mL of artificial gastric fluid (simulated gastric fluid—SGF) with pepsin, or artificial intestinal fluid (simulated intestinal fluid—SIF) with pancreatin and incubated at 37 °C under moderate stirring at 100 rpm. SGF and SIF were prepared as per European Pharmacopoeia specifications. A total of 1000 µL samples were collected at determined time intervals for 120 min, and an equal volume of ice-cold reagent was added to stop the enzymatic reaction (0.10 M NaOH for SGF and 0.10 M HCl for SIF). Samples were analyzed by radioimmunoassay.

pepsin [1] = test system: T1, pepsin; test: Enzymatic stability in simulated gastric fluid (SGF) with pepsin; type: in vitro ADME, porcine; settings: pig, simulated gastric fluid (SGF) with pepsin; SGF with pepsin (Ph. Eur.), 37 °C, 100 rpm, 30 min; RIA; mean ± SD, n = 3; read-out: active MCH measured after incubation in SGF
T1 construct: purchased Sigma-Aldrich; host or cells: porcine gastric mucosa
Description: as §1

pepsin [2] = target: T2, pepsin (Sus scrofa, UniProt P00791); test: as above; type: in vitro ADME, porcine; settings: SGF with pepsin, 37 °C, 100 rpm, 1 h; RIA; n = 3
T2 construct: purchased Sigma-Aldrich; host or cells: porcine gastric mucosa
Description: as §1

Caco-2 cells = test: MTT cell viability assay; type: cell-based, human; settings: Caco-2, MTT, n = 10
Description: A Caco-2 immortalized human adenocarcinoma cell line was purchased from The European Collection of Cell Cultures (ECACC). Cells were seeded and maintained in plastic cell culture flasks in Dulbecco's Modified […] medium (DMEM Sigma-Aldrich Ltd., Budapest, Hungary). Cell culturing media was supplemented with 2 mM L-glutamine, 100 mg/L gentamycin (Sigma-Aldrich Ltd., Budapest, Hungary) and 10% heat inactivated fetal bovine serum (FBS) (Sigma-Aldrich Ltd., Budapest, Hungary). Cells were stored in incubators at 37 °C in a 5% CO2 atmosphere. The colon epithelial Caco-2 cell line forms a single cell layer with well-defined tight junctions. Caco-2 cell viability was evaluated using the MTT method. Cells were harvested and seeded at a density of 10^4 cells/well on flat-bottom 96-well tissue culture plates. Cells were allowed to grow for 7 days under the abovementioned conditions. For the viability measurements, the DMEM was removed. […] Mitochondrial activity of the cells was determined after 3 h incubation with MTT at the concentration of 0.50 mg/mL. […] The absorbance of dissolved formazan crystals correlates with the ratio of the living cells. Absorbance was measured with a FLUOstar OPTIMA Micro-plate Reader (BMG LABTECH, Offenburg, Germany) at 570 nm against a 690 nm reference.

T2 sequence (P00791 60-385): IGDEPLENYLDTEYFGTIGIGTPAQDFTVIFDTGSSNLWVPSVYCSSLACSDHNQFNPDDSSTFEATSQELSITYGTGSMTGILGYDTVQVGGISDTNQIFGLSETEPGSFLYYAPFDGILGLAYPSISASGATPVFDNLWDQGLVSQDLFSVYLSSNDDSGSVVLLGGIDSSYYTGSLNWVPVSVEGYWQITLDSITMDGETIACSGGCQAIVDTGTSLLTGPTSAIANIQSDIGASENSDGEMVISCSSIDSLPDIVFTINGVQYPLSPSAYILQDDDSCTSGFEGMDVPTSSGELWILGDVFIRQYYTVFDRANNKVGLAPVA

CSCC[C@@H]1NC(=O)[C@@H](NC(=O)[C@H](CCCNC(=N)N)NC(=O)[C@H](CC(C)C)NC(=O)[C@H](CCSC)NC(=O)[C@H](CC(=O)O)NC(=O)[C@H](Cc2ccccc2)NC(=O)[C@@H](N)CC(=O)O)CSSC[C@@H](C(=O)N[C@@H](Cc2c[nH]c3ccccc23)C(=O)N[C@@H](CCC(N)=O)C(=O)N[C@H](C(=O)O)C(C)C)NC(=O)[C@@H]2CCCN2C(=O)[C@H](CCCNC(=N)N)NC(=O)[C@H](Cc2ccc(O)cc2)NC(=O)[C@H](C(C)C)NC(=O)[C@H](CCCNC(=N)N)NC(=O)CNC(=O)[C@H](CC(C)C)NC1=O [MCH, Melanin concentrating hormone]
MCH recovery after incubation with SIF (pancreatin; SIF with pancreatin, 2 h): 1.00 ± 0.50%
remaining at 0.5 h (pancreatin; pig, simulated intestinal fluid (SIF) with pancreatin, SIF with pancreatin (Ph. Eur.), 30 min, read-out: active MCH measured after incubation in SIF): 8 ± 0.5%
remaining at 0.5 h (pepsin [1]): 3 ± 0.5%
degradation after incubation in SGF (pepsin [2]): completely degraded

CCOCCOCCO [Transcutol HP, Diethylene glycol monoethyl ether]
IC50 (cytotoxicity) (Caco-2 cells; 30 min incubation with sample, 3 h MTT 0.50 mg/mL, absorbance 570 nm): 0.37 v/v%

O.O.[Ca+2].[Cl-].[Cl-] [calcium-chloride dihydrate, Calcium chloride dihydrate]
toxicity in MTT assay (in words) (Caco-2 cells; 30 min incubation, also at higher concentrations): did not show relevant toxicity
